Consider 4 compounds from patent US20210230134A1, “VITAMIN E DERIVATIVES AND THEIR USE AS MULTI-SCALE IMAGING AGENTS” (EXACT DELIVERY INC., priority 2018, published 2021).

For data set [1], the system named is C2C12 mouse myoblasts. In words: MTT tetrazolium reduction viability assay, C2C12 myoblasts. The format is cell-based. Particulars: 24 h; for viability (formazan absorbance at 570 nm, MTT): 1 nM to 1 mM, vs 0.1% DMSO vehicle. The protocol: (§1) C2C12 mouse myoblasts and mouse embryonic fibroblasts (MEFs) were cultured in DMEM supplemented with 10% (v/v) FBS, 4500 mg/L glucose, 4 mM L-glutamine, 1 mM sodium pyruvate, 2% (v/v) MEM nonessential amino acid solution, and penicillin (50 I.U./mL)/streptomycin (50 μg/mL) solution (complete media). Cells were cultured in a humidified 5% CO2 atmosphere within a Thermo Forma Series II water-jacketed CO2 incubator maintained at 37° C. Cells were transferred to fresh 96- or 6-well plates (2,000 cells/well & 60,000 cells/well, respectively) in the evening prior to commencing tocopherol treatments.
(§2) Each tocopherol was dissolved in sterile 100% DMSO to yield a 1 M stock solution. Less concentrated stock solutions were subsequently prepared using ten-fold serial dilutions. All tocopherol solutions were stored at −20° C. To treat cultured cells, media was replaced with complete media containing freshly-added tocopherol; the final amount of vehicle (DMSO) for all concentrations tested was 0.1% (v/v).
(§3) Media was discarded, wells were washed once with phenol red-free complete culture media, and 100 μL/well phenol red-free complete culture media containing 0.45 mg/mL MTT was added. Two hours later, solubilization solution [40% (v/v) dimethylformamide, 2% (v/v) glacial acetic acid, 16% (w/v) sodium dodecyl sulfate, pH 4.7] was added (100 μL/well) and well contents were gently mixed by re-suspension to dissolve the formazan precipitate. Plates were incubated at room temperature in darkness for 2 h before recording absorbance at 570 nm using a Bio-Tek PowerWave Microplate UV-Vis spectrophotometer (Winooski, Vt., USA). For each plate, background signal averaged from cell-free wells containing vehicle treatments was subtracted
as §3, with “subtracted.” for “subtracted”
Background: Formazan colour is commonly taken as a measure of viable cells.

Data set [2] deals with mouse embryonic fibroblasts (MEFs). In words: MTT tetrazolium reduction viability assay, MEFs. The format is cell-based. Particulars: 24 h; for viability (formazan absorbance at 570 nm, MTT): 1 nM to 1 mM, vs 0.1% DMSO vehicle. The protocol:
as §1, §2, §3
as §3, with “subtracted.” for “subtracted”

Data set [3] concerns the target T1, α-TTP (α-tocopherol transfer protein) (Homo sapiens, UniProt P49638).
T1 sequence (P49638 1-278): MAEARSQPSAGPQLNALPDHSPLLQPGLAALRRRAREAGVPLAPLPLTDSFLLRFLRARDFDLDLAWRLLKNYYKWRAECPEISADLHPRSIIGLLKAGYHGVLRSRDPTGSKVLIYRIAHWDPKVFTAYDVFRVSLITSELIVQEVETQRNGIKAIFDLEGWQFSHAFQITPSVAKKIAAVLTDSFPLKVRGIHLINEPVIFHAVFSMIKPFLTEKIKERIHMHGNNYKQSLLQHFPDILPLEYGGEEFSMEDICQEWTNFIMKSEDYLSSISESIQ
In words: Competitive displacement of TBtoc from pre-incubated complex with α-TTP. The format is binding. Particulars: 0.4 μM TBtoc pre-incubated with 0.4 μM α-TTP; competitor in dioxane; TKE buffer. As to the method:
When α-TTP is pre-incubated with TBtoc, competitive assays are possible by the incremental addition of a specific ligand such as natural α-tocopherol. Cholesterol served as a negative control (FIG. 5). About 57% of the bound fluorescence could be competed of α-TTP by α-tocopherol, whereas only about 8% was lost with cholesterol.

On to `Cc1c(C)c2c(c(C)c1O)CC[C@@](C)(CCC[C@H](C)CCC[C@H](C)CCCC(C)C)O2` [α-tocopherol, reference compound], for which the “viability (formazan absorbance at 570 nm, MTT)” value (from here on “viability”) in data set [1] and in data set [2] was “no sensitivity” each time. For the same compound, the “bound fluorescence competed off α-TTP” value in data set [3] is “About 57%”.
Regarding `Cc1c(C)c2c(c(C)c1I)CC[C@@](C)(CCCC(C)CCCC(C)CCCC(C)C)O2` (stereo partly drawn) [I-Toc, (2R)-6-iodo-2,5,7,8-tetramethyl-2-(4.8.12-trimethyl-tridecyl)-chroman], the “viability” value in data set [1] and in data set [2] was “no negative sensitivity” each time.
`Cc1c(C)c2c(c(C)c1[19F])CC[C@@](C)(CCC[C@H](C)CCC[C@H](C)CCCC(C)C)O2` [F-Toc]: the “viability” value in data set [1] and in data set [2] was “no sensitivity” in each case. For the same compound, the “cytotoxic concentration (no cytotoxicity up to stated concentration)” value in data set [1] (MTT) and in data set [2] (MTT) was above 1 mM throughout.
On to `CC(C)CCC[C@@H](C)[C@H]1CC[C@H]2[C@@H]3CC=C4C[C@@H](O)CC[C@]4(C)[C@H]3CC[C@]12C` [cholesterol], for which the “bound fluorescence competed off α-TTP” value in data set [3] is “about 8%”.
